Test results from patent US9518026B2, “5-aminopyrazole-4-carboxamide inhibitors of CDPK1 from T. gondii and C. parvum” (UNIVERSITY OF WASHINGTON THROUGH ITS CENTER FOR …, priority 2013, dated 2016).
Read-outs that look alike come from different tables or passages of the source.

Legend:
[1] = Cytotoxicity against CRL8155 cell line; assay type: cell-based; details: human, CRL8155 cells (lymphoblast, spleen), read-out: Cytotoxicity (CRL8155) EC50
TgCDPK1 = TgCDPK1 (Toxoplasma gondii, UniProt Q9BJF5); experiment: biochemical; details: read-out: TgCDPK1 IC50
CpCDPK1 = CpCDPK1 (Cryptosporidium parvum (strain Iowa II), UniProt A3FQ16); experiment: biochemical; details: Table 1; KinaseGlo, Syntide 2 peptide substrate; read-out: CpCDPK1 IC50
Src = Src (Homo sapiens (Human), UniProt P12931); experiment: biochemical
T. gondii = experiment: Inhibition of T. gondii cell proliferation; assay type: cell-based; details: Toxoplasma gondii; Table 3; read-out: T. gondii EC50
[2] = Table 1, KinaseGlo, Syntide 2 peptide substrate

Chain of Src (P12931 270-523): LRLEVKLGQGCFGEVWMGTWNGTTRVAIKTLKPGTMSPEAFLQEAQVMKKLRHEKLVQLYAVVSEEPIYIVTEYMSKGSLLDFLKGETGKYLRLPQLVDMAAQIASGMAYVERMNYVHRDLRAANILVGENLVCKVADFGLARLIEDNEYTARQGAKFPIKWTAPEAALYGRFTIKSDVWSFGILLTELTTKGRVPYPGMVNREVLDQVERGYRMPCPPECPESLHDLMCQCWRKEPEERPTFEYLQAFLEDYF
Chain of CpCDPK1 (A3FQ16 1-538): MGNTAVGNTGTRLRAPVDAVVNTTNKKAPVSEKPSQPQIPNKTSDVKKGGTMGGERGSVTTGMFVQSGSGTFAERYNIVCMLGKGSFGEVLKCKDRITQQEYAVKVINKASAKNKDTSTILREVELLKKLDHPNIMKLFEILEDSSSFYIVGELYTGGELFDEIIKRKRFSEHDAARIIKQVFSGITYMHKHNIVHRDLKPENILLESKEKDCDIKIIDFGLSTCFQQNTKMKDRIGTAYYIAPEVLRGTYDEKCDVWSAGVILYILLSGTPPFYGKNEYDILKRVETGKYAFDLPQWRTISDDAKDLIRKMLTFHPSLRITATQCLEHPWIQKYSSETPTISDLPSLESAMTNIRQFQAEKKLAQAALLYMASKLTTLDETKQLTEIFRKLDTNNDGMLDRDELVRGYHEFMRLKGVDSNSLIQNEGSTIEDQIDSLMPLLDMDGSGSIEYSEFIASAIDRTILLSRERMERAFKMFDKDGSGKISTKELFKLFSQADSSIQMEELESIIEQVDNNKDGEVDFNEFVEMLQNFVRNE
Chain of TgCDPK1 (Q9BJF5 1-507): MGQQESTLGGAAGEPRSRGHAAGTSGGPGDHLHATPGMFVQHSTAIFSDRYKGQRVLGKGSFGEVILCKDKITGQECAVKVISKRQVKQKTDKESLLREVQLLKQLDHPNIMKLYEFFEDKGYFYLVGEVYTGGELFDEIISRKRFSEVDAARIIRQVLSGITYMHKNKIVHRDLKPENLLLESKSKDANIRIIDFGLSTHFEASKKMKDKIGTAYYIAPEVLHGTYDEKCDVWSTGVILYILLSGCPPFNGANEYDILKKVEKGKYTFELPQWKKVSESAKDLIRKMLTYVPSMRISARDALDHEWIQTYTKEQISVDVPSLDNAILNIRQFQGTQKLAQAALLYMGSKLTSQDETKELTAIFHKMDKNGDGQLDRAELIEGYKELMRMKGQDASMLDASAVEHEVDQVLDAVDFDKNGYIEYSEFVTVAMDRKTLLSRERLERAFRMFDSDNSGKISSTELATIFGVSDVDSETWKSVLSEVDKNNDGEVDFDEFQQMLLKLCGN

SMILES | IC50 (CpCDPK1) [nM] | EC50 ([1]; Table 3) [µM] | IC50 (Src; Src IC50 (μM), Table 3) [µM] | IC50 (TgCDPK1; [2]) [nM] | further results
CC(C)(C)Cn1nc(-c2ccc3ccccc3c2)c(C(N)=O)c1N [Compound 19, 5-amino-3-(naphthalen-2-yl)-1-neopentyl-1H-pyrazole-4-carboxamide] |  |  |  |  | EC50 ([1]; Table 2): > 40 µM
CC(C)(C)n1nc(-c2cnc3ccccc3c2)c(C(N)=O)c1N [Compound 38, 5-amino-1-(tert-butyl)-3-(quinolin-3-yl)-1H-pyrazole-4-carboxamide] | 7 |  |  |  | IC50 (TgCDPK1): 6 nM; EC50 ([1]; Table 2): > 40 µM; IC50 (Src; Src IC50 (μM), Table 2): > 10 µM
CC(C)(C)n1nc(-c2cnc3cc(F)ccc3c2)c(C(N)=O)c1N [Compound 1545, 5-amino-1-tert-butyl-3-(7-fluoroquinolin-3-yl)-1H-pyrazole-4-carboxamide] |  | > 40 | > 30 |  | 
CC(C)Oc1ccc2cc(-c3nn(C(C)(C)C)c(N)c3C(N)=O)cnc2c1 [Compound 1569, 5-amino-1-(tert-butyl)-3-(7-isopropoxyquinolin-3-yl)-1H-pyrazole-4-carboxamide] | 5 | > 40 |  |  | 
CCOc1ccc2cc(-c3nn(CCOC)c(N)c3C(N)=O)cnc2c1 [Compound 1594, 5-amino-3-(7-ethoxyquinolin-3-yl)-1-(2-methoxyethyl)-1H-pyrazole-4-carboxamide] | 172 |  |  | 321 | 
CCOc1ccc2cc(-c3nn(CCOC)c(N)c3C(=O)NCCOC)cnc2c1 [Compound 1595, 5-amino-3-(7-ethoxyquinolin-3-yl)-N,1-bis(2-methoxyethyl)-1H-pyrazole-4-carboxamide] | 398 |  |  | 723 | 
CCOc1ccc2cc(-c3nn(CC(C)(C)CO)c(N)c3C(N)=O)cnc2c1 [Compound 1596, 5-amino-3-(7-ethoxyquinolin-3-yl)-1-(3-hydroxy-2,2-dimethylpropyl)-1H-pyrazole-4-carboxamide] |  | > 40 | > 10 |  | 
CCOc1ccc2cc(-c3nn(C(C)(C)C)c(N)c3C(N)=O)ccc2n1 [Compound 1597, 5-amino-1-(tert-butyl)-3-(2-ethoxyquinolin-6-yl)-1H-pyrazole-4-carboxamide] | 3 | > 40 | > 10 |  | 
CCOc1ccc2cc(-c3nn(CC4CC4)c(N)c3C(N)=O)cnc2c1 [Compound 1598, 5-amino-1-(cyclopropylmethyl)-3-(7-ethoxyquinolin-3-yl)-1H-pyrazole-4-carboxamide] | 5 | > 40 | > 10 | 12 | 
CCOc1ccc2cc(-c3nn(C4CCCCCC4)c(N)c3C(N)=O)cnc2c1 [Compound 1604, 5-amino-1-cycloheptyl-3-(7-ethoxyquinolin-3-yl)-1H-pyrazole-4-carboxamide] | 2 | > 40 | > 10 |  | 
CCOc1ccc2cc(-c3nn(C4CCCC4)c(N)c3C(N)=O)cnc2c1 [Compound 1605, 5-amino-1-cyclopentyl-3-(7-ethoxyquinolin-3-yl)-1H-pyrazole-4-carboxamide] | 4 | > 40 | > 10 |  | 
CCOc1ccc2cc(-c3nn(C(C(C)C)C(C)C)c(N)c3C(N)=O)cnc2c1 [Compound 1607, 5-amino-1-(2,4-dimethylpentan-3-yl)-3-(7-ethoxyquinolin-3-yl)-1H-pyrazole-4-carboxamide] | 20 |  |  | 99 | 
CCOc1ccc2cc(-c3nn4c(c3C(N)=O)NC(=O)C4)cnc2c1 [Compound 1609, 6-(7-ethoxyquinolin-3-yl)-2-oxo-2,3-dihydro-1H-imidazo[1,2-b]pyrazole-7-carboxamide] | 577 |  |  | 1430 | 
CCOc1ccc2cc(-c3nn(C(C)C(C)O)c(N)c3C(N)=O)cnc2c1 (stereo not shown) [Compound 1611, 5-amino-3-(7-ethoxyquinolin-3-yl)-1-(3-hydroxybutan-2-yl)-1H-pyrazole-4-carboxamide] | 6 |  |  | 19 | 
CCOc1ccc2cc(-c3nn(C4CCOC4)c(N)c3C(N)=O)cnc2c1 (stereo not shown) [Compound 1612, 5-amino-3-(7-ethoxyquinolin-3-yl)-1-(tetrahydrofuran-3-yl)-1H-pyrazole-4-carboxamide] | 3 |  |  | 10 | 
CCOc1ccc2cc(-c3nn(CC(C)(C)CO)c(N)c3C(N)=O)ccc2n1 [Compound 1622, 5-amino-3-(2-ethoxyquinolin-6-yl)-1-(3-hydroxy-2,2-dimethylpropyl)-1H-pyrazole-4-carboxamide] |  | > 40 |  |  | 
CCOc1ccc2cc(-c3nn(C(C)C(C)(C)O)c(N)c3C(N)=O)cnc2c1 (stereo not shown) [Compound 1626, 5-amino-3-(7-ethoxyquinolin-3-yl)-1-(3-hydroxy-3-methylbutan-2-yl)-1H-pyrazole-4-carboxamide] | 13 |  |  | 30 | 
CCOc1ccc2cc(-c3nn(C(C)CO)c(N)c3C(N)=O)cnc2c1 (stereo not shown) [Compound 1627, 5-amino-3-(7-ethoxyquinolin-3-yl)-1-(1-hydroxypropan-2-yl)-1H-pyrazole-4-carboxamide] | 9 |  |  | 20 | 

SMILES | IC50 (CpCDPK1) [nM] | EC50 ([1]; Table 3) [µM] | IC50 (Src; Src IC50 (μM), Table 3) [µM] | IC50 (TgCDPK1; [2]) [nM] | further results
CCOc1ccc2cc(-c3nn(C(CO)CO)c(N)c3C(N)=O)cnc2c1 [Compound 1629, 5-amino-1-(1,3-dihydroxypropan-2-yl)-3-(7-ethoxyquinolin-3-yl)-1H-pyrazole-4-carboxamide] | 52 |  |  | 120 | 
CC(C)(C)n1nc(-c2cnc3cc(OC4CCC4)ccc3c2)c(C(N)=O)c1N [Compound 1630, 5-amino-1-(tert-butyl)-3-(7-cyclobutoxyquinolin-3-yl)-1H-pyrazole-4-carboxamide] | 4 |  |  | 3 | 
CCOc1ccc2cc(-c3nn(C(C)C4CC4)c(N)c3C(N)=O)cnc2c1 (stereo not shown) [Compound 1631, 5-amino-1-(1-cyclopropylethyl)-3-(7-ethoxyquinolin-3-yl)-1H-pyrazole-4-carboxamide] | 5 |  |  | 10 | 
CCOc1ccc2cc(-c3nn(C4CCCCCC4)c(N)c3C(N)=O)ccc2n1 [Compound 1632, 5-amino-1-cycloheptyl-3-(2-ethoxyquinolin-6-yl)-1H-pyrazole-4-carboxamide] | 6 |  |  | 7 | 
CCOc1ccc2cc(-c3nn(C4CCCCC4)c(N)c3C(N)=O)ccc2n1 [Compound 1633, 5-amino-1-cyclohexyl-3-(2-ethoxyquinolin-6-yl)-1H-pyrazole-4-carboxamide] | 2 | > 40 | > 10 | 4 | 
CCOc1ccc2cc(-c3nn(CC4CC4)c(N)c3C(N)=O)ccc2n1 [Compound 1635, 5-amino-1-(cyclopropylmethyl)-3-(2-ethoxyquinolin-6-yl)-1H-pyrazole-4-carboxamide] | 3 | > 40 | > 10 | 6 | 
CCOc1ccc2cc(-c3nn(C(C)C(C)(C)O)c(N)c3C(N)=O)ccc2n1 (stereo not shown) [Compound 1636, 5-amino-3-(2-ethoxyquinolin-6-yl)-1-(3-hydroxy-3-methylbutan-2-yl)-1H-pyrazole-4-carboxamide] | 18 |  |  | 58 | 
CCOc1ccc2cc(-c3nn(C(C)C(C)(C)CO)c(N)c3C(N)=O)cnc2c1 (stereo not shown) [Compound 1637, 5-amino-3-(7-ethoxyquinolin-3-yl)-1-(4-hydroxy-3,3-dimethylbutan-2-yl)-1H-pyrazole-4-carboxamide] | 4 |  |  | 12 | 
CC(C)(C)n1nc(-c2ccc3nc(OC4CCC4)ccc3c2)c(C(N)=O)c1N [Compound 1639, 5-amino-1-(tert-butyl)-3-(2-cyclobutoxyquinolin-6-yl)-1H-pyrazole-4-carboxamide] | 6 | > 40 | > 10 | 5 | 
CCOc1ccc2cc(-c3nn(C4(C)CCCCC4)c(N)c3C(N)=O)cnc2c1 [Compound 1640, 5-amino-3-(7-ethoxyquinolin-3-yl)-1-(1-methylcyclohexyl)-1H-pyrazole-4-carboxamide] | 6 |  |  | 9 | 
CCOc1ccc2cc(-c3nn(CC(C)(C)O)c(N)c3C(N)=O)cnc2c1 [Compound 1641, 5-amino-3-(7-ethoxyquinolin-3-yl)-1-(2-hydroxy-2-methylpropyl)-1H-pyrazole-4-carboxamide] | 21 |  |  | 41 | 
CC(C)(C)n1nc(-c2ccc3nc(OC4CC4)ccc3c2)c(C(N)=O)c1N [Compound 1643, 5-amino-1-(tert-butyl)-3-(2-cyclopropoxyquinolin-6-yl)-1H-pyrazole-4-carboxamide] | 3 | > 40 | > 10 | 5.7 | 
CC(C)(CO)Cn1nc(-c2ccc3nc(OC4CCC4)ccc3c2)c(C(N)=O)c1N [Compound 1645, 5-amino-3-(2-cyclobutoxyquinolin-6-yl)-1-(3-hydroxy-2,2-dimethylpropyl)-1H-pyrazole-4-carboxamide] | 5 | > 40 | > 10 |  | EC50 (T. gondii): 480 nM
CCOc1ccc2cc(-c3nn(C4CCC4)c(N)c3C(N)=O)cnc2c1 [Compound 1652] |  | > 40 |  |  | IC50 (Src): > 10 µM
CCOc1ccc2ncc(-c3nn(C(C)(C)C)c(N)c3C(N)=O)cc2c1 [Compound 1654, 5-amino-1-(tert-butyl)-3-(6-ethoxyquinolin-3-yl)-1H-pyrazole-4-carboxamide] | > 2000 |  |  | > 2000 | 
CCOc1ccc2ncc(-c3nn(C4CCCCC4)c(N)c3C(N)=O)cc2c1 [Compound 1655, 5-amino-1-cyclohexyl-3-(6-ethoxyquinolin-3-yl)-1H-pyrazole-4-carboxamide] | > 2000 |  |  | > 2000 | 
CCOc1ccc2cc(-c3nn(C(C)C)c(N)c3C(N)=O)ccc2n1 [Compound 1661, 5-amino-3-(2-ethoxyquinolin-6-yl)-1-isopropyl-1H-pyrazole-4-carboxamide] | 2 |  |  | 5 | 
